Measurements published in ChEMBL document CHEMBL1201862, “PubChem BioAssay data set” (2004).
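Five concentrations, 48 hours, 96-well plates. GI50 is the concentration that inhibits growth by half.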 Active and inactive are the calls of the source. No stated cut-off is given here; in the data, active = GI50 up to about 1.1 µM and inactive = higher.

Columns and labels:
Assay in all cases: growth of human tumour cells (NCI), 48 h
SF-295 = test system: SF-295
NCI-H23 = test system: NCI-H23
BT-549 = test system: BT-549
ACHN = test system: ACHN
NCI-H460 = test system: NCI-H460
NCI-H522 = test system: NCI-H522
SK-OV-3 = test system: SK-OV-3
786-0 = test system: 786-0
SF-539 = test system: SF-539
UO-31 = test system: UO-31
HCT-15 = test system: HCT-15
M14 = test system: M14
MDA-MB-231 = test system: MDA-MB-231
UACC-62 = test system: UACC-62
LOX IMVI = test system: LOX IMVI
OVCAR-5 = test system: OVCAR-5
SK-MEL-28 = test system: SK-MEL-28
OVCAR-4 = test system: OVCAR-4
HOP-92 = test system: HOP-92
SNB-75 = test system: SNB-75
UACC-257 = test system: UACC-257
IGROV-1 = test system: IGROV-1
T47D = test system: T47D
SNB-19 = test system: SNB-19
COLO 205 = test system: COLO 205
SF-268 = test system: SF-268
MDA-MB-435 = test system: MDA-MB-435
NCI/ADR-RES = test system: NCI/ADR-RES
EKVX = test system: EKVX
RPMI-8226 = test system: RPMI-8226
KM12 = test system: KM12
TK-10 = test system: TK-10
SW-620 = test system: SW-620
SN12C = test system: SN12C
OVCAR-8 = test system: OVCAR-8
CAKI-1 = test system: CAKI-1
RXF 393 = test system: RXF 393
DU-145 = test system: DU-145
MOLT-4 = test system: MOLT-4
HOP-62 = test system: HOP-62
PC-3 = test system: PC-3
HCC 2998 = test system: HCC 2998
NCI-H226 = test system: NCI-H226
MDA-N = test system: MDA-N
Hs-578T = test system: Hs-578T
OVCAR-3 = test system: OVCAR-3
CCRF-CEM = test system: CCRF-CEM
A498 = test system: A498
K562 = test system: K562
U-251 = test system: U-251
HCT-116 = test system: HCT-116
HT-29 = test system: HT-29
Malme-3M = test system: Malme-3M
SK-MEL-2 = test system: SK-MEL-2
MCF7 = test system: MCF7
A549 = test system: A549
SK-MEL-5 = test system: SK-MEL-5
HL-60 = test system: HL-60

Measured: GI50

CSc1nc2c(c(N(C)C)n1)C(O)n1c(nc3ccccc31)S2 (stereo not drawn)
> 100 µM: HCT-15
inactive: SF-295 38.1 µM | NCI-H23 31.3 µM | BT-549 67 µM | ACHN > 83.9 µM | NCI-H460 73.5 µM | NCI-H522 12 µM | SK-OV-3 16.5 µM | 786-0 26.8 µM | SF-539 15.2 µM | UO-31 > 50.2 µM | M14 > 65.3 µM | MDA-MB-231 28 µM | UACC-62 > 85.9 µM | LOX IMVI 9.38 µM | OVCAR-5 > 100 µM | SK-MEL-28 46.2 µM | OVCAR-4 4.95 µM | HOP-92 43.3 µM | SNB-75 17.1 µM | UACC-257 > 100 µM | IGROV-1 30.2 µM | T47D 38.1 µM | SNB-19 25.4 µM | COLO 205 > 100 µM | SF-268 32.7 µM | MDA-MB-435 > 100 µM | NCI/ADR-RES 37.8 µM | EKVX > 100 µM | RPMI-8226 > 100 µM | KM12 > 100 µM | TK-10 > 53.2 µM | SW-620 > 100 µM | SN12C > 100 µM | OVCAR-8 14.6 µM | CAKI-1 > 58.5 µM | RXF 393 21.3 µM | DU-145 69.7 µM | MOLT-4 > 100 µM | HOP-62 23 µM | PC-3 > 100 µM | HCC 2998 > 100 µM | NCI-H226 > 100 µM | MDA-N > 55.1 µM | Hs-578T 14.1 µM | OVCAR-3 29.2 µM | CCRF-CEM > 100 µM | A498 > 100 µM | K562 > 100 µM | U-251 > 22.7 µM | HCT-116 23 µM | HT-29 > 100 µM | Malme-3M 28.6 µM | SK-MEL-2 > 100 µM | MCF7 47 µM | A549 > 71.9 µM | SK-MEL-5 56.2 µM

CCCCC1C=Cn2c(=O)oc3c(OC(C)C)c(OC(C)C)c(O)c1c32 (stereo not drawn)
inactive: SF-295 18.5 µM | NCI-H23 12.2 µM | BT-549 14.3 µM | ACHN 36.6 µM | NCI-H460 15.4 µM | NCI-H522 11.6 µM | SK-OV-3 25.2 µM | 786-0 20 µM | SF-539 23.6 µM | UO-31 13.6 µM | M14 22.3 µM | MDA-MB-231 14.1 µM | UACC-62 13.4 µM | LOX IMVI 14.3 µM | OVCAR-5 17.2 µM | SK-MEL-28 13.6 µM | OVCAR-4 21.5 µM | HOP-92 14.3 µM | SNB-75 13 µM | UACC-257 15.6 µM | T47D 4.44 µM | SNB-19 18.2 µM | COLO 205 16.3 µM | SF-268 18.5 µM | MDA-MB-435 12.5 µM | EKVX 29.9 µM | KM12 14.4 µM | TK-10 16.3 µM | HL-60 4.56 µM | SW-620 13.9 µM | SN12C 20.5 µM | OVCAR-8 14.9 µM | CAKI-1 15.1 µM | DU-145 14.8 µM | MOLT-4 6.1 µM | HOP-62 20.7 µM | PC-3 38.2 µM | NCI-H226 14 µM | MDA-N 20.9 µM | Hs-578T 18.3 µM | OVCAR-3 16.4 µM | CCRF-CEM 8.49 µM | A498 17.1 µM | U-251 16 µM | HCT-116 17.4 µM | HT-29 14.6 µM | SK-MEL-2 15.3 µM | MCF7 12.2 µM | A549 17.2 µM | SK-MEL-5 14.7 µM
14.6 µM: HCT-15
